Data as given in US3956314A, “Derivatives of 2-pyrrolidinone” (U.C.B., Societe Anonyme, priority 1970, dated 1976).

Legend:
[1] = toxicity determined in rat by intraperitoneal administration (LD50); conditions: in vivo, ip
Text: Moreover, the compounds of the invention have low toxicity.

Wistar rats = experiment: anxiolytic action: shuttle box conditioning test, painful electric shocks, second sequence; type: in vivo
Method: Wistar rats (weighing 100 g. ± 20 g.) are first permitted to become accustomed, during 10 minutes, to conditioning cages of the shuttle box type, after which they are subjected to a first sequence of 20 painful electric shocks of 3 seconds on their paws repeated every 30 seconds. During this first sequence, the rats ran away before the end of the shock about 15 times out of 20 shocks.
On the other hand, if these same animals are subjected to a sequence of shocks 4 hours later, paradoxically, instead of improving their performance (as in the course of a normal training) a reduction in the number of evasions is found: the animals have become set and are less successful in running away before the end of the shocks. This behavior is attributed to an anxiety state induced by the experimental situation.
Intraperitoneal administration of an anxiolytic substance to the rats, half an hour before the second sequence is carried out, improves their performance (increase in the number of evasions before the end of the shock).
A group of rats, to which a substance to be tested is administered, is compared with a group of control rats, which has been injected with physiological serum under the same conditions. […]

O=C1NC[C@H](c2ccc(Cl)cc2)[C@@H]1c1ccccc1 (relative stereo) [E, 4-p-chlorophenyl-3-phenyl-2-pyrrolidinone (cis isomer)]
LD50 [1]: 320 mg/kg

CC1C(=O)NCC1c1ccc(Cl)cc1 [Compound D, 4-p-chlorophenyl-3-methyl-2-pyrrolidinone (trans isomer)]
LD50 [1]: 306 mg/kg

CNC1=Nc2ccc(Cl)cc2C(c2ccccc2)=[N+]([O-])C1 [S, 7-chloro-2-methylamino-5-phenyl-3H-1,4-benzodiazepine-4-oxide]
LD50 ([1]; reference drug): 240 mg/kg

O=C1CC(c2ccc(Cl)cc2)CN1 (centres unmarked) [T, 4-(para-chlorophenyl)-pyrrolidone-(2)]
performance (in words) (Wistar rats; dose of 0.32 mmole/kg): a decrease in the performance | anxiolytic action (in words) (Wistar rats; rat shuttle box test): practically no anxiolytic action
